Reference: patent publication US9700637B2, “Reaction-based fluorescent probes for detecting zinc” (Massachusetts Institute of Technology, priority 2013, dated 2017)

System: RWPE-1 cells
Experiment: Mitochondrial zinc uptake imaging in prostate cells
Type: cell-based
Conditions: RWPE-1, 50 μM ZnCl2 KSFM, 24 h
Experimental: FIG. 25 depicts decreased mitochondrial zinc uptake in cancerous cell lines. RWPE-1, RWPE-2, and PC-3 prostate cell lines were incubated for 24 h in medium supplemented with (+) and without (−) 50 μM ZnCl2. RWPE-1 is the only cell line that has a statistically significant (p<0.001) increase in mitochondrial zinc uptake when incubated in zinc-enriched media.
With a new mitochondrial-targeting sensor in hand, we used DA-ZP1-TPP to investigate the ability of prostate cell lines to accumulate zinc within their mitochondria. RWPE-1 and RWPE-2 are a pair of genetically similar cell lines that retain normal epithelial cell morphology, express cytokeratin markers for prostate epithelial cells, and are hormone sensitive. […] To explore the ability of RWPE-1 and -2 cells to sequester zinc in mitochondria, we measured the fluorescence intensity of DA-ZP1-TPP in both lines after the cells were bathed in normal or zinc-enriched (50 μM ZnCl2) keratinocyte serum-free medium (KSFM) for 24 h prior to imaging. RWPE-1 cells bathed in zinc-enriched medium have a fluorescence signal intensity that is ˜2.3-fold higher than cells bathed in normal medium (FIG. 25). […] Importantly, in both cell lines the observed fluorescence signals from DA-ZP1-TPP are sensitive to ZnPT and TPEN and have good correlation with MitoTracker Red, the Pearson's r values being 0.68±0.09 and 0.59±0.1 for RWPE-1 and -2, respectively. […]

CC(=O)Oc1c(Cl)cc2c(c1CN(Cc1ccccn1)Cc1ccccn1)Oc1c(cc(Cl)c(OC(C)=O)c1CN(Cc1ccccn1)Cc1ccccn1)C21OC(=O)c2ccc(C(=O)NCC[P+](c3ccccc3)(c3ccccc3)c3ccccc3)cc21 [DA-ZP1-TPP] was tested, and the “fluorescence signal intensity, zinc-enriched vs normal medium” value was about 2.3 fold.
